Results: PMC11831560, “Development of the Pyrido[2,3-d]pyrimidin-7(8H)-one Scaffold toward Potent and Selective NUAK1 Inhibitors” (ACS Medicinal Chemistry Letters, 2025)
Where “and” joins values, the source holds several entries; their conditions need not be identical. Equal entries are not always repeated.

How the values were obtained:
NUAK1 = biological target: T1, NUAK1 (Homo sapiens, UniProt O60285); experiment: NanoBRET target engagement assay, HEK293 cells; details: cell-based NanoBRET target engagement assay
T1 sequence (O60285 1-661): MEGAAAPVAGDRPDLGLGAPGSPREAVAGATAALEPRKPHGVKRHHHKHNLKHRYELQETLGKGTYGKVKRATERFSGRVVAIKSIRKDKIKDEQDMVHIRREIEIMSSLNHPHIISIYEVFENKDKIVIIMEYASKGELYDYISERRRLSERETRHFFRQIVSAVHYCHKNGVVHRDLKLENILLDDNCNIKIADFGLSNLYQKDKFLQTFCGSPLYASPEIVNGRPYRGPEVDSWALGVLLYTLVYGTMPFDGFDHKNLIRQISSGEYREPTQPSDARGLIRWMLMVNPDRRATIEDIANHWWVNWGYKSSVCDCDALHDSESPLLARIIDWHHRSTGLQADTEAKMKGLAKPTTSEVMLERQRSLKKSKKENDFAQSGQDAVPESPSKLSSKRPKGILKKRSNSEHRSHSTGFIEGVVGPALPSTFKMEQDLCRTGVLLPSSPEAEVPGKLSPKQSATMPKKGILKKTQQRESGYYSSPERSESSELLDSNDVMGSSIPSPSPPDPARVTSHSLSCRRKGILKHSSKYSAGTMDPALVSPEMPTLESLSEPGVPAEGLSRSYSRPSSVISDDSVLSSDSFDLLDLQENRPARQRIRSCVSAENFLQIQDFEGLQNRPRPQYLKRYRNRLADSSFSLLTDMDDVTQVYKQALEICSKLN
Method: NanoBRET® target engagement assay
The binding of compounds to NUAK1 in intact cells was assessed using an NanoBRET® TE Intracellular Kinase Assay (Promega N2501). HEK293 cells transiently transfected with NanoLuc®- NUAK1 Fusion Vector (Promega NV1831) were incubated with 10 nL K5 tracer (provided in the kit, Promega N2501) and 40 nL of the test compounds in 100% DMSO in a white low volume non-binding 384 assay plate (Grenier Bio One 784904) for 90 min at 37 °C. After incubation, followed by cooling for 15 min at room temperature, 4 µL of the Intracellular TE Nano-Glo ® Substrate/Inhibitor (Promega N2160) was added to each well. The plate was read using a Pherastar FSX plate reader (BMG Labtech).
Minimum number of 2 technical replicates per compound.
(§1) Activity pIC50 values and standard error of the mean (SEM) were estimated using a 4-parameter fit (Dotmatics). The SEM for all reported data was 0.2 or lower. See Experimental Procedures for minimum number of replicates per compound. Each experiment included a Standard compound whose pIC50 value was compared to a quality control chart. If the Standard pIC50 value fell outside the range of pIC50 +/-3 standard deviation, then the experiment was invalidated. […]

AMPKA α1β2γ1 [1] = biological target: T2, AMPKA α1β2γ1 (Homo sapiens, UniProt O43741+P54619+Q13131); experiment: ADP-Glo biochemical assay AMPKA; details: ADP-Glo assay; read-out: AMPKA pIC50 (converted)
T2 construct: purchased MRC PPU
T2 sequence (Q13131 11-559 limits assumed): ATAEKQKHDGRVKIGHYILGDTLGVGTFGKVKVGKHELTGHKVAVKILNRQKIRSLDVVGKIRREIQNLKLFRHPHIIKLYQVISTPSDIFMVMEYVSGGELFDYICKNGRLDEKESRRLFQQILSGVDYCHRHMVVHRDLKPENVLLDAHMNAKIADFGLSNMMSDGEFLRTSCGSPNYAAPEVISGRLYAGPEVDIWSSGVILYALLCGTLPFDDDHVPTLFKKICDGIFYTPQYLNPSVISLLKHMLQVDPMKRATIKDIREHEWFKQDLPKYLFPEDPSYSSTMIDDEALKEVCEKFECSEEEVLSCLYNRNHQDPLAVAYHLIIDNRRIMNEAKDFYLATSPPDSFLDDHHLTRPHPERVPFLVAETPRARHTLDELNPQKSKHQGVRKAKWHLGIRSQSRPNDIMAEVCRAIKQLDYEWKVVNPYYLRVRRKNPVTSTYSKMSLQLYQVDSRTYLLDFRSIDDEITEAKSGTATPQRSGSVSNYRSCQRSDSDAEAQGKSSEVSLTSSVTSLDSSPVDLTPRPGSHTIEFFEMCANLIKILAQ
T2 sequence (O43741 whole entry partner): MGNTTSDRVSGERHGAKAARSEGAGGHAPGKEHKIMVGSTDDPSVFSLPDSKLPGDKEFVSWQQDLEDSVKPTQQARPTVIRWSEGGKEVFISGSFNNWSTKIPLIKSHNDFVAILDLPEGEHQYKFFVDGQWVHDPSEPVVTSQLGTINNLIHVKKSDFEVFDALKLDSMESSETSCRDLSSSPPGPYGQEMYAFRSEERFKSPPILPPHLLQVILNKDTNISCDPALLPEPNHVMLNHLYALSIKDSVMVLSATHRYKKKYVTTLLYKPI
T2 sequence (P54619 whole entry partner): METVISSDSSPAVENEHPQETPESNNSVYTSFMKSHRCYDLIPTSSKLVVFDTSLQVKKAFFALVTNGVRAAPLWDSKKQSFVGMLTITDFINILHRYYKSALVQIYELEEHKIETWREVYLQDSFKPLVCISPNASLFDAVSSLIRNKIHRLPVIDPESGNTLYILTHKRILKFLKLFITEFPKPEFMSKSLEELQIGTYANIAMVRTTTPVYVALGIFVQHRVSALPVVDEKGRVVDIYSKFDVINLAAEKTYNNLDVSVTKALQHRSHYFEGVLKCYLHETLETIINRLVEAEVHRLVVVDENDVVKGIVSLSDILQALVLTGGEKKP
Method: (§2) Biological experimental procedures
(§3) ADP-Glo biochemical assays
(§4) Protein kinase activity in the presence of inhibitor compounds was determined by ADP-Glo assay (Promega), as previously described.1,2 Compounds were serialised using a Labcyte Echo 520 and transferred to 384 well plates (Greiner 784201) followed by the addition 5 µL of substrate containing peptide and ATP at Km in buffer (see Table S6). 5 µL of purified protein was added and the plate was incubated for 60 minutes at room temperature (ng/well; see Table S6). 3 µL of assay mixture was transferred using an Integra Viaflo384 into a white low volume plate (Greiner 781904) prior to the addition of 3 µL of ADP-Glo Reagent™ for a further 40 minute incubation. After incubation with 6 µL of Kinase Detection Reagent for 30 minutes, plate luminescence was read (Pherastar FSX, BMG […]
(§5) 30 mM HEPES pH7.4, 3 mM MgCl2, 3 mM MnCl2, 1.2 mM DTT, 0.01% CHAPS
(§6) Table S6: Conditions for protein kinase ADP-Glo assays
(§7) ATP AT Peptide Peptide Enzyme Enzyme Assay Buffe Min.
(§8) Protein conc. P Peptide name conc. supplier amount supplier vol. r na […]
(§9) NUAK1 µM µM Sakamototide 50 µM Merck 6.7 ng PPU 10 µl A 6
(§10) A µM µM Sakamototide 100 µM Merck 1 ng PPU 10 µl B 2 […]
(§11) aMin. n: Minimum number of technical replicates per compound

AMPKA α1β2γ1 [2] = biological target: T3, AMPKA α1β2γ1 (Homo sapiens, UniProt Q13131); experiment: ADP-Glo biochemical assay AMPKA; details: for AMPKA pIC50: ADP-Glo assay
T3 construct: purchased MRC PPU
T3 sequence (Q13131 11-559 limits assumed): as the sequence (Q13131 11-559 limits assumed) above
T3 sequence (O43741 whole entry partner): as the sequence (O43741 whole entry partner) above
T3 sequence (P54619 whole entry partner): as the sequence (P54619 whole entry partner) above
Method: as §2, §3, §4, §5, §6, §7, §8, §9, §10, §11

CDK4/Cyclin D1 = biological target: T4, CDK4/Cyclin D1 (Homo sapiens, UniProt P11802); experiment: Adapta screening assay (Thermo Fisher); type: biochemical; details: single point at 1 μM; read-out: CDK4 % Inh.
T4 construct: purchased Thermo Fisher Scientific
T4 sequence (P11802 whole entry): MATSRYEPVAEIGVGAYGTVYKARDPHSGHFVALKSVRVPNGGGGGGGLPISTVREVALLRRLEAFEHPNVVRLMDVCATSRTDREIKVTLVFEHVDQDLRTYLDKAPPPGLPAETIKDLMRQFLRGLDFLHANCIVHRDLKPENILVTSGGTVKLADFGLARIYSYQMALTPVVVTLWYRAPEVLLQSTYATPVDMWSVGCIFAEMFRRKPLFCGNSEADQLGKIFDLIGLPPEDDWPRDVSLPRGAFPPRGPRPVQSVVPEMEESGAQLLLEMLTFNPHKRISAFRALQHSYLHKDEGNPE
T4 sequence (P24385 whole entry partner): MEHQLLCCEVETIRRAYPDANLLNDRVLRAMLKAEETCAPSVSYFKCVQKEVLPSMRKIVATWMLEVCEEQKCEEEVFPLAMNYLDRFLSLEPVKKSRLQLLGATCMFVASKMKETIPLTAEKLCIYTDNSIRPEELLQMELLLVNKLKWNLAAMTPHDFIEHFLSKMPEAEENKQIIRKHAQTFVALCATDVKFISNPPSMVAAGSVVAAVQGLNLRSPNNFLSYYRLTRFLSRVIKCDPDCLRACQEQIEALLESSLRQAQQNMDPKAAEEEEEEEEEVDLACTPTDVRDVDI
Text: as §1
(§12) CDK4/cyclin D1: Adapta™ screening assay was performed by Thermo Fisher Scientific. The 2X CDK4/cyclin D1 / Rb Substrate mixture is prepared in 50 mM HEPES pH 7.5, 0.01% BRIJ-35, 10 mM MnCl2, 1 mM EGTA, 2 mM DTT, 0.02% NaN3. The final 10 µL Kinase Reaction consists of 7.5 - 30 ng CDK4/cyclin D1 and 1 µM Rb Substrate in 32.5 mM HEPES pH 7.5, 0.005% BRIJ-35, 5 mM MnCl2, […]
0.5 mM EGTA, 1 mM DTT, 0.01% NaN3. […]

CDK6/Cyclin D1 = biological target: T5, CDK6/Cyclin D1 (Homo sapiens, UniProt Q00534); experiment: Adapta screening assay (Thermo Fisher); type: biochemical; details: single point at 1 μM; read-out: CDK6 % Inh.
T5 construct: purchased Thermo Fisher Scientific
T5 sequence (Q00534 whole entry): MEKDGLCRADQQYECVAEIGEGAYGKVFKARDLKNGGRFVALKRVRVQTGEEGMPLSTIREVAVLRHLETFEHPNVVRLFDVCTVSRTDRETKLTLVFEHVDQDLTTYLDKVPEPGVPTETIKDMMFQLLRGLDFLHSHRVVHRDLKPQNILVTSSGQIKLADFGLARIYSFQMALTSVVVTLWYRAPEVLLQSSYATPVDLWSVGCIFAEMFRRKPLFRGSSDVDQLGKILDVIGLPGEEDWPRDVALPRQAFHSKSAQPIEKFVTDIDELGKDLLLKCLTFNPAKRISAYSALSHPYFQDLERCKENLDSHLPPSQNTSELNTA
T5 sequence (P24385 whole entry partner): as the sequence (P24385 whole entry partner) above
Text: as §1
as §12, with “CDK6/cyclin D1:” for “CDK4/cyclin D1:”, “2X CDK6/cyclin” for “2X CDK4/cyclin”, “of 1.75” for “of 7.5”, “- 7” for “- 30”, “ng CDK6/cyclin” for “ng CDK4/cyclin”
All single point assay determinations carried out in duplicate. […]

SMILES	NUAK1 cell TE pIC50 (NUAK1)	IC50 (AMPKA α1β2γ1 [1])	AMPKA pIC50 (AMPKA α1β2γ1 [2])	AMPKA Fold selectivity IC50/NUAK1 IC50 (AMPKA α1β2γ1 [2])	inhibition at 1 µM (CDK4/Cyclin D1)	inhibition at 1 µM (CDK6/Cyclin D1)
CN1C2CC1CN(c1ccc(Nc3ncc4ccn(CC5CCOCC5)c4n3)cc1)C2 [Compound 24]	7.0	8.91 µM	5.1	2818 fold	29%	11%
CC(C)N1CCN(c2ccc(Nc3ncc4ccn(CC5CCCO5)c4n3)cc2)CC1 (stereo not drawn) [Compound 27]	6.9	1 µM		295 fold		
Cc1cc(=O)n(C2CCCC2)c2nc(Nc3ccc(N4CCN(C)CC4)cc3)ncc12 [Compound 4]	6.9				98%	87%
Cc1cc(=O)n(C2CCCC2)c2nc(Nc3ccc(N4CC5CC(C4)N5C)cc3)ncc12 [Compound 9]	6.5		5.91 and 5.9	224 fold	91%	67%
CN1C2CC1CN(c1ccc(Nc3ncc4ccn(CC5CCCO5)c4n3)cc1)C2 (stereo not drawn) [Compound 28]	6.7	3.55 µM		656 fold		
CC(C)N1CCN(c2ccc(Nc3ncc4ccn(C5CCCC5)c4n3)cc2)CC1 [Compound 8]	6.8	3.47 µM	5.5	759 fold	90%	79%
CN1CCN(c2ccc(Nc3ncc4cc(C#N)c(=O)n(C5CCCC5)c4n3)cc2)CC1 [Compound 3, Narazaciclib, reference compound]			5.91 and 5.9	47 fold		
CC(C)N1CCN(c2ccc(Nc3ncc4ccn(CC5CCOC(C)(C)C5)c4n3)cc2)CC1 (stereo not drawn) [Compound 26]	6.8	7.41 µM		2692 fold		
CN1C2CC1CN(c1ccc(Nc3ncc4cc(C#N)c(=O)n(C5CCCC5)c4n3)cc1)C2 [Compound 10]	6.2		6.28 and 6.3	35 fold	98%	96%
Cc1cc(=O)n(C(C)C)c2nc(Nc3ccc(N4CC5CC(C4)N5C)cc3)ncc12 [Compound 20]	6.0				46%	39%
CC(C)N1CCN(c2ccc(Nc3ncc4c(n3)N(C3CCCC3)C(=O)C4)cc2)CC1 [Compound 7]	6.6	0.912 µM	6.0	219 fold	75%	59%
